Test results taken from BindingDB's records for doi:10.1021/acs.biochem.6b00338 (University of California Santa Cruz, 2016).

target: T1, Arachidonate 15-lipoxygenase (Pseudomonas aeruginosa, UniProt Q9I4G8); assay: LoxA Selectivity Assay; conditions: pH 7; 25 °C
T1 sequence (Q9I4G8 whole entry): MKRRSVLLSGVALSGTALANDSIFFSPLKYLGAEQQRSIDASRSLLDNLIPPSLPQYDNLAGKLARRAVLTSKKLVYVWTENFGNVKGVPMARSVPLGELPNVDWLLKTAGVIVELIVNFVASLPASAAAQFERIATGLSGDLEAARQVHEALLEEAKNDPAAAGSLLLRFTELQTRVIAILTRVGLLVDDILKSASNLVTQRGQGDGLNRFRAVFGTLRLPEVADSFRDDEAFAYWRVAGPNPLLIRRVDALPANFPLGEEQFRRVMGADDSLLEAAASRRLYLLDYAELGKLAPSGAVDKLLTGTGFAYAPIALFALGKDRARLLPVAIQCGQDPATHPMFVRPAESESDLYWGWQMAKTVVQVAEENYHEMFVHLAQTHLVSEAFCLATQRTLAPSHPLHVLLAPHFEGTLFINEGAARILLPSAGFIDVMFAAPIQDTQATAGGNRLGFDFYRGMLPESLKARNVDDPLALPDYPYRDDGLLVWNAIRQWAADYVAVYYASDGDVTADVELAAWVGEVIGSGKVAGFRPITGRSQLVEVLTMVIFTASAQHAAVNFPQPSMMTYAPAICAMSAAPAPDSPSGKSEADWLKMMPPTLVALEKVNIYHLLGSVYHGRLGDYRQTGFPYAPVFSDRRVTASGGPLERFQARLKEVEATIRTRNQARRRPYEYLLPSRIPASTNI
Method: The one-point inhibition percentages were determined for human LOX inhibitors by following the formation of the conjugated diene product at 234 nm (ε = 25,000 M−1 cm−1) at an inhibitor concentration of 25 μM. All reaction mixtures were 2 mL in volume and constantly stirred using a magnetic stir bar at room temperature (22 °C) with 7 nM LoxA. Reactions were conducted in 25 mM HEPES buffer (pH 7.0), 0.01% Triton X-100, and 10 μM AA. The concentration of AA was quantitatively determined by allowing the enzymatic reaction to go to completion. Confirmed hitswere then screened against the human isozymes 5-LOX, 15-LOX-1, 15-LOX-2, and 12-LOX for specificity.

IC50 [µM]	Compound
0.52	CCCCCCc1ccn(Cc2ccccc2C)c(=O)c1 [PT171]
0.5	CC(Cc1ccc(O)c(O)c1)C(C)Cc1ccc(O)c(O)c1 (stereo not given) [LOX inhibitor, N/A]
2.6	CCCCCCc1ccc(Oc2ccccc2Cl)c(O)c1 [PT91]
1	CCCCCCc1ccc(Oc2ccccc2F)c(O)c1 [PT113]
0.01	O=C(OCC#CCSc1nnc(-c2cccc3ccccc23)o1)c1ccccc1 [4-(5-(Naphthalen-1-yl)-1,3,4-oxadiazol-2-ylthio)but-2-ynyl benzoate]
